Assay results published in BindingDB's records for patent US9403804 (Janssen Pharmaceutica, 2016).

Target: Macrophage colony-stimulating factor 1 receptor (Homo sapiens, UniProt P07333)
Assay: Fluorescence Polarization Competition Immunoassay
Details: pH 7.5; 25 °C
Description: The assay buffer used was 100 mM 4-(2-hydroxyethyl)piperazine 1-ethanesulfonic acid (HEPES), pH 7.5, 1 mM 1,4-dithio-DL-threitol (DTT), 0.01% (v/v) Tween-20. Compounds were diluted in assay buffer containing 4% dimethylsulfoxide (DMSO) just prior to the assay. To each well, 5 μL of compound were added followed by the addition of 3 μL of a mix containing 33 nM c-fms (Johnson & Johnson PRD) and 16.7 mM MgCl2 (Sigma) in assay buffer. The kinase reaction was initiated by adding 2 μL of 5 mM ATP (Sigma) in assay buffer. The final concentrations in the assay were 10 nM c-fms, 1 mM ATP, 5 mM MgCl2, 2% DMSO. Control reactions were ran in each plate: in positive and negative control wells, assay buffer (made 4% in DMSO) was substituted for the compound; in addition, positive control wells received 1.2 μL of 50 mM ethylenediaminetetraaceticacid (EDTA). The plates were incubated at room temperature for 45 min. At the end of the incubation, the reaction was quenched with 1.2 μL of 50 mM EDTA (EDTA was not added to the positive control wells at this point; see above). Following a 5-min incubation, each well received 10 μL of a 1:1:3 mixture of anti-phosphotyrosine antibody, 10×, PTK green tracer, 10× (vortexed), FP dilution buffer, respectively (all from PanVera, cat. # P2837). The plate was covered, incubated for 30 min at room temperature and the fluorescence polarization was read on the Analyst. […]

Chain of Macrophage colony-stimulating factor 1 receptor (P07333 whole entry): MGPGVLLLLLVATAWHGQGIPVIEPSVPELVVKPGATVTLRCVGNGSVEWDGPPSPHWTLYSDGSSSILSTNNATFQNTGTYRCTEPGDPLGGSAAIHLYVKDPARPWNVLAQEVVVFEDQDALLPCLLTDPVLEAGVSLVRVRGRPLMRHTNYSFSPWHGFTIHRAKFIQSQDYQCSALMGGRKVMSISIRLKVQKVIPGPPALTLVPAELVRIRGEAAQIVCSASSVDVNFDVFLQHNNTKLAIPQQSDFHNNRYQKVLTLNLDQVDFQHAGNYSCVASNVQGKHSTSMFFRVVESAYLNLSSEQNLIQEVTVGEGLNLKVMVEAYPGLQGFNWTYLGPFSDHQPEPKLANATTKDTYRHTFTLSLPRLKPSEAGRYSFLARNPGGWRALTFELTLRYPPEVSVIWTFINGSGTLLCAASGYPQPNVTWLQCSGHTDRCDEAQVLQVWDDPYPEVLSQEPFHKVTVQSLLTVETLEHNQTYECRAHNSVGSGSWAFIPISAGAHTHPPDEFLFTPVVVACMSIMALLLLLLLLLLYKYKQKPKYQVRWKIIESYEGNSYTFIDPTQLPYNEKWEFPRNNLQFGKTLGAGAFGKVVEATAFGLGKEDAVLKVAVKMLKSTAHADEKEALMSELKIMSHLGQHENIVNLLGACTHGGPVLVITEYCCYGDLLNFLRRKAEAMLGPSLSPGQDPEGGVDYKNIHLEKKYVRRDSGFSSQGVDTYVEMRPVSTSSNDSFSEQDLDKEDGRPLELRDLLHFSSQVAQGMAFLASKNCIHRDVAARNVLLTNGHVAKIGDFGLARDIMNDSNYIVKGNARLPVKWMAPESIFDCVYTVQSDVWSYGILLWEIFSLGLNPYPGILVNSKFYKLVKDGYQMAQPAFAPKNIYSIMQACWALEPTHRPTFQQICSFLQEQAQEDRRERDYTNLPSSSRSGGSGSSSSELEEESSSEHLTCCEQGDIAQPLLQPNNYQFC

Compound | IC50 [nM]
CC1(C)CC=C(c2cc([C@]3(O)CC[C@@H](N4CCOCC4)CC3)ccc2NC(=O)c2nc(C#N)c[nH]2)CC1 [US9403804, 44] | 0.72
CC1(C)CC=C(c2cc([C@]3(O)CC[C@H](N4CCOCC4)CC3)ccc2NC(=O)c2nc(C#N)c[nH]2)CC1 [US9403804, 45] | 3.4
